Measurements published in PubChem BioAssay AID222 (DTP/NCI, 2004).
Values joined by “and” are separate entries in the source; they are usually repeats but may differ in a detail not shown here. Equal values may be shown once. Toxic doses and inconclusive results are not listed. The calls were made as follows: active = survival T/C of 150% or more; inactive = T/C below 125% in these data.

Test system: C57BL/6 mice, intracerebral ependymoblastoma, median survival T/C
Test: NCI In Vivo Anticancer Drug Screen. Data for tumor model Ependymoblastoma (intracerebral) in C57BL/6 mice
Settings: endpoint: median survival time, higher = longer survival
Experimental: The antitumor activity of compounds was measured in mice bearing transplantable tumors. Survival or tumor size were measured and the results are expressed as the measurement made in the treated group (T) divided by the measurement made in the vehicle treated control group (C). The tumor model used in this assay is Ependymoblastoma (intracerebral) in C57BL/6 mice

Measured: T/C

C[C@@H](CN1CC(=O)NC(=O)C1)N1CC(=O)NC(=O)C1
inactive: dose: 1.0 mg/kg/injection, schedule: Q01DX005 (ip), vehicle: water 110 % of control | dose: 4.0 mg/kg/injection, schedule: Q01DX005 (ip), vehicle: Klucel (hydroxypropylcellulose) (HPC) 103 % of control (2×) and 118 % of control | dose: 4.0 mg/kg/injection, schedule: Q01DX005 (ip), vehicle: saline with Tween-80 103 % of control | dose: 4.0 mg/kg/injection, schedule: Q01DX005 (ip), vehicle: water 106 % of control | dose: 8.0 mg/kg/injection, schedule: Q01DX005 (ip), vehicle: saline with Tween-80 104 % of control | dose: 16.0 mg/kg/injection, schedule: Q01DX005 (ip), vehicle: Klucel (hydroxypropylcellulose) (HPC) 106 % of control and 112 % of control and 120 % of control | dose: 16.0 mg/kg/injection, schedule: Q01DX005 (ip), vehicle: saline with Tween-80 108 % of control | dose: 16.0 mg/kg/injection, schedule: Q01DX005 (ip), vehicle: water 111 % of control | dose: 32.0 mg/kg/injection, schedule: Q01DX005 (ip), vehicle: saline with Tween-80 112 % of control | dose: 32.0 mg/kg/injection, schedule: Q01DX005 (ip), vehicle: saline 108 % of control and 111 % of control | dose: 64.0 mg/kg/injection, schedule: Q01DX005 (ip), vehicle: Klucel (hydroxypropylcellulose) (HPC) 115 % of control and 121 % of control | dose: 64.0 mg/kg/injection, schedule: Q01DX005 (ip), vehicle: saline with Tween-80 113 % of control | dose: 64.0 mg/kg/injection, schedule: Q01DX005 (ip), vehicle: saline 119 % of control and 121 % of control | dose: 64.0 mg/kg/injection, schedule: Q01DX005 (ip), vehicle: water 116 % of control | dose: 128.0 mg/kg/injection, schedule: Q01DX005 (ip), vehicle: saline 120 % of control

COc1cc([C@@H]2c3cc4c(cc3[C@@H](OC3OC5CO[C@@H](c6cccs6)OC5C(O)C3O)[C@H]3COC(=O)[C@H]23)OCO4)cc(OC)c1O (stereo partly specified)
inactive: dose: 0.06 mg/kg/injection, schedule: Q01DX005 (ip), vehicle: saline 101 % of control | dose: 0.12 mg/kg/injection, schedule: Q01DX005 (ip), vehicle: saline 95 % of control | dose: 0.25 mg/kg/injection, schedule: Q01DX005 (ip), vehicle: saline 97 % of control | dose: 0.5 mg/kg/injection, schedule: Q01DX005 (ip), vehicle: saline 99 % of control | dose: 1.0 mg/kg/injection, schedule: Q01DX005 (ip), vehicle: saline 104 % of control | dose: 1.0 mg/kg/injection, schedule: Q01DX005 (oral), vehicle: saline 101 % of control | dose: 2.0 mg/kg/injection, schedule: Q01DX005 (ip), vehicle: saline 114 % of control | dose: 4.0 mg/kg/injection, schedule: Q01DX005 (oral), vehicle: saline 104 % of control | dose: 8.0 mg/kg/injection, schedule: Q01DX005 (oral), vehicle: saline 100 % of control | dose: 16.0 mg/kg/injection, schedule: Q01DX005 (oral), vehicle: saline 95 % of control

NC(=O)c1ncn(C2OC(CO)C(O)C2O)n1 (stereo unspecified)
inactive: dose: 20.0 mg/kg/injection, schedule: Q01DX005 (ip), vehicle: saline 108 % of control | dose: 40.0 mg/kg/injection, schedule: Q01DX005 (ip), vehicle: saline 105 % of control | dose: 80.0 mg/kg/injection, schedule: Q01DX005 (ip), vehicle: saline 108 % of control

Nc1ccc(S(=O)(=O)c2ccc(N)cc2)cc1
inactive: dose: 12.5 mg/kg/injection, schedule: Q01DX005 (ip), vehicle: saline with Tween-80 108 % of control | dose: 25.0 mg/kg/injection, schedule: Q01DX005 (ip), vehicle: saline with Tween-80 108 % of control | dose: 45.0 mg/kg/injection, schedule: Q01DX005 (ip), vehicle: saline with Tween-80 98 % of control and 102 % of control | dose: 50.0 mg/kg/injection, schedule: Q01DX005 (ip), vehicle: saline with Tween-80 87 % of control | dose: 90.0 mg/kg/injection, schedule: Q01DX005 (ip), vehicle: saline with Tween-80 96 % of control and 98 % of control | dose: 100.0 mg/kg/injection, schedule: Q01DX005 (ip), vehicle: saline with Tween-80 100 % of control | dose: 180.0 mg/kg/injection, schedule: Q01DX005 (ip), vehicle: saline with Tween-80 101 % of control and 87 % of control | dose: 200.0 mg/kg/injection, schedule: Q01DX005 (ip), vehicle: saline with Tween-80 86 % of control
